According to patent publication US20220236255A1, “Self-Contained Responsive Biological Systems and Methods” (Arizona Board of Regents on Behalf of the University of …, priority 2019, published 2022):
Like-named read-outs stand apart in the source and are kept apart here.

Experiments:
SK-MEL-28 cells = assay: Modified MTT drug response assay, withaferin A, 72 hours; type: cell-based, human; conditions: WFA 72 hours, read-out: IC50 (concentration resulting in 50% of cell death)
Experimental: A modified MTT experiment was developed from CellTiter 96 NonRadioactive Cell Proliferation Assay kit (Promega). Treated leaves were cut into 1×1 cm sized pieces and fit to the bottom of an untreated 48-well plate. 0.75×0.75 cm inserts were placed in the well on the top of the leaf, cells were plated at 10,000 cells/insert and incubated at 37° C. with 5% CO2 atmosphere. After 24 hours, the inserts were removed and leaves with attached cells were cut and re-plated into non-treated 96-well plates. In parallel, cells were also directly seeded into a treated 96-well plate at a concentration of 5000 cells/well. The medium was refreshed every 72 hours. Tetrazolium component was added at day 1, 3, 5 and 7 and absorbance of formazan product was measured at 570 nm by using Epoch microplate spectrophotometer (Biotek Instruments). For the drug response assay, withaferin A (WFA) was added at concentrations ranging from 0.156 to 40 μM and incubated for 72 hours prior to the addition of the […]. […]
Microphthalmia-associated Transcription Factor (MITF) is a lineage-determining transcription factor critical for regulation of the melanocytic lineage during development and implicated as both a melanoma tumor suppressor and oncogene. […] Gene expression was then analyzed by qRT-PCR for MITF and three genes of the MITF-high expression signature (SOX10, MLANA and TYR). […]

[1] = test system: RFP-transfected dermal fibroblasts spheroids; assay: Growth of irradiated dermal fibroblast spheroids pre-treated with everolimus; type: cell-based; conditions: everolimus 24 h before 4 Gy-irradiation; growth monitored for 8 days
Experimental: FIG. 33 RFP-transfected dermal fibroblasts spheroids have been exposed to different concentrations of everolimus 24 h before 4 Gy-irradiation and their growth monitored for 8 days.

[2] = test system: Glast, SOX2 and Nestin mRNA in U87/NPC organoids; assay: qRT-PCR of biomarker mRNA in everolimus-treated irradiated organoids; type: cell-based, human; conditions: irradiated organoids pre-treated with everolimus; qRT-PCR at day 10 after irradiation
Experimental: (§1) Thus, the effect of a rapamycin analog, everolimus, on human cells was investigated using an in vitro organoids model. GFP-tagged glioblastoma U87 cells were cultured in presence of RFP-tagged neural progenitor cells (NPCs), differentiated from dermal fibroblasts reprogrammed to induced pluripotent stem cells, to form organoids. The organoids were exposed to 10 nM everolimus for 24 hours before 2 Gy-irradiation. […] This has been confirmed by qRT-PCR where Glast mRNA level (glioblastoma biomarker) decreases whereas SOX2 and Nestin mRNA levels (NPCs biomarkers) increase in irradiated organoids pre-treatment with everolimus (FIGS. 27A-27C).

[3] = test system: organoids of GFP-tagged glioblastoma U87 cells and RFP-tagged neural progenitor cells (NPCs); assay: Organoid fluorescence (cell viability) after everolimus pre-treatment and irradiation; type: cell-based, human; conditions: 10 nM everolimus for 24 hours before 2 Gy-irradiation; over one week
Experimental: as §1

SMILES: CC1=C(CO)C(=O)O[C@@H]([C@@H](C)[C@H]2CC[C@H]3[C@@H]4C[C@H]5O[C@]56[C@@H](O)C=CC(=O)[C@]6(C)[C@H]4CC[C@]23C)C1 [WFA, withaferin A]
- IC50 (SK-MEL-28 cells; SK-MEL-28 cells seeded on decellularized spinach leaf scaffold): 5.2 µM
- IC50 (SK-MEL-28 cells; SK-MEL-28 cells seeded on stiff substrate (TCPS)): 1.1 µM

SMILES: CO[C@H]1C[C@@H]2CC[C@@H](C)[C@@](O)(O2)C(=O)C(=O)N2CCCC[C@H]2C(=O)O[C@H]([C@H](C)C[C@@H]2CC[C@@H](OCCO)[C@H](OC)C2)CC(=O)[C@H](C)/C=C(\C)[C@@H](O)[C@@H](OC)C(=O)[C@H](C)C[C@H](C)/C=C/C=C/C=C/1C [everolimus]
- growth of irradiated spheroids compared to non-pretreated spheroids [1]: increased
- Glast mRNA level (glioblastoma biomarker) [2]: decreases
- Nestin mRNA level (NPCs biomarker) [2]: increase
- SOX2 mRNA level (NPCs biomarker) [2]: increase
- GFP fluorescence intensity (U87 cells) compared to vehicle-treated organoids after irradiation [3]: decreases
- RFP fluorescence signal (NPCs) compared to vehicle-treated organoids after irradiation [3]: increases
